Series [1] is described as follows: Tumor cell line cytotoxicity of flavonoid dimers, LCC6MDR. The class given is cell-based, human. To be noted: human, LCC6MDR cells, IC50 of compound alone. On the procedure: (§1) (b) Tumor Cell Line Cytotoxicity. The tumor cytotoxicity assays of flavonoid dimers were performed against LCC6, LCC6MDR and L929 cell lines. […] In brief, LCC6, LCC6MDR and L929 cells were seeded into 96-well flat bottom microtiter plate at 1×10^4 cells per well in a final volume of 100 μL media, respectively. A graded dose of flavonoid dimers was added into wells. The plate was incubated at 37° C. for 72 hrs at the atmosphere 5% CO2 in the air. The % of survivors was determined.

Series [2] in a line: Tumor cell line cytotoxicity of flavonoid dimers, LCC6. To be noted: human, LCC6 cells, IC50 of compound alone. The class given is cell-based, human. The protocol: as §1
The nature of series [3]: Cytotoxicity of flavonoid dimers, L929 mouse fibroblast. It is filed as cell-based. To be noted: mouse, L929 fibroblast cells, IC50 of compound alone, 72 hrs, mouse fibroblast. The protocol:
as §1

In another series the target is Pgp (LCC6MDR cells) (Homo sapiens, UniProt P08183). Kind of series: Cell proliferation assay: Pgp-modulating activity, reversal of anticancer drug resistance in LCC6MDR cells. To be noted: for EC50: EC50 of compounds for reversing anticancer drug resistance (nM), Paclitaxel; for EC50 / RF (Relative Fold), cpd at 0.5 μM / RF (Relative Fold), cpd at 1 μM: LCC6MDR; for Therapeutic index: IC50 of compounds for L929/EC50 of compounds for lowering paclitaxel drug resistance; for RF (Relative Fold), cpd at 0.5 μM: RF = (IC50 without modulator)/(IC50 with 0.5 μM modulator); for RF (Relative Fold), cpd at 0.5 μM / RF (Relative Fold), cpd at 1 μM: paclitaxel; for RF (Relative Fold), cpd at 1 μM: RF = (IC50 without modulator)/(IC50 with 1.0 μM modulator).
Sequence of Pgp (LCC6MDR cells) (P08183 whole entry): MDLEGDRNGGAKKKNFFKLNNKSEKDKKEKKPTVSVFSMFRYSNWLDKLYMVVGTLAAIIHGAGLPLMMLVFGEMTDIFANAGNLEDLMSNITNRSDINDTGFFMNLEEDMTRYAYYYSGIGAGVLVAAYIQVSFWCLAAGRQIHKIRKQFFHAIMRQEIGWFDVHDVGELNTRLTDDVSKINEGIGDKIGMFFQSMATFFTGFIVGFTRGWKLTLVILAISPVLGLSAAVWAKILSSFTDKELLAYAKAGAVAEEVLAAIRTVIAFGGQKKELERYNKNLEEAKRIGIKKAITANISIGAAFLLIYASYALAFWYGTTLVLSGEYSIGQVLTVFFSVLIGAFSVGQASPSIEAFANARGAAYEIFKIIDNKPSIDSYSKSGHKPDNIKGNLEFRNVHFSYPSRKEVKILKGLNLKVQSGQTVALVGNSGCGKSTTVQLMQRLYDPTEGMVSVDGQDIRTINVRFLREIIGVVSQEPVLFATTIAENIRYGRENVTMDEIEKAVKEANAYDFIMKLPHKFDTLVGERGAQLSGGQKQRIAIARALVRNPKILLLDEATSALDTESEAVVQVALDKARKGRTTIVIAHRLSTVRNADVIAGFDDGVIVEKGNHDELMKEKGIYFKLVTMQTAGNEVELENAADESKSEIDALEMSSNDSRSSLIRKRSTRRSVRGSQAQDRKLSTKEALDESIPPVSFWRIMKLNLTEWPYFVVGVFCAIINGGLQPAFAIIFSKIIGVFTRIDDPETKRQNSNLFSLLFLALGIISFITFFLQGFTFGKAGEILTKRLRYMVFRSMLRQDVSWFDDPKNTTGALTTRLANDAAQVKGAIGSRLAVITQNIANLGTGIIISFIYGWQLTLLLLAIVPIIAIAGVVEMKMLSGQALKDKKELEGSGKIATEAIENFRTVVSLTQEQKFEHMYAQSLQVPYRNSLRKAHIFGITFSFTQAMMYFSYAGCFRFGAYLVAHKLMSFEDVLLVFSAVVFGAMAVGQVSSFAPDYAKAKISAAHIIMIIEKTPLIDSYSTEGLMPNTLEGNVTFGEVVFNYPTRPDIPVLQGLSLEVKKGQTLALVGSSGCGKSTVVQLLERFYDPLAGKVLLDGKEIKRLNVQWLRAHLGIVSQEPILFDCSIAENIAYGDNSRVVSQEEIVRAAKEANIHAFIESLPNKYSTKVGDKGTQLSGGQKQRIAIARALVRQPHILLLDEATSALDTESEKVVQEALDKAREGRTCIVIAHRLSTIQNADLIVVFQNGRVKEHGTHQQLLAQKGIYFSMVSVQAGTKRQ

Bounds are passed on as bounds.

Experimental for Pgp (LCC6MDR cells): Cell Proliferation Assay. 6,000 cells of LCC6 or LCC6MDR and anticancer drugs (paclitaxel, vinblastine, vincristine, doxorubicin and mitoxantrone) were mixed with or without modulators to a final volume of 200 μL in each well of 96-well plates. […] The plates were then incubated for 5 days at 37° C. […] IC50 values were calculated from the dose-response curves of MTS assays (Prism 4.0).

The IC50 is the concentration needed to halve the response being measured. Higher therefore signals a need for much substance. Broadly, the EC50 is the concentration needed to bring the measured effect to its halfway point. `O=c1cc(-c2ccc(OCCOCCN(CCOCCOc3ccc(-c4cc(=O)c5ccccc5o4)cc3)Cc3ccc(O)cc3)cc2)oc2ccccc12` [Compound 42d, 1,13-Bis[4′-(4H-chromen-4-on-2-yl)phenyl]-7-(4-hydroxybenzyl)-1,4,10,13-tetraoxa-7-azamidecane] registered an IC50 at 72 h in series [1] of 5.3 ± 0.7 µM. In series [2], this molecule displayed an IC50 at 72 h of 5.4 ± 0.6 µM. This molecule also yielded a 50% inhibitory concentration (IC50) at 72 h in series [3] of 4.8 ± 0.3 µM. On Pgp (LCC6MDR cells), the EC50 was determined as 141 ± 9 nM; the Therapeutic index is 34.0; the “RF (Relative Fold), cpd at 0.5 μM” value was “(117.8)”; the “RF (Relative Fold), cpd at 1 μM” value is listed as “(117.8)”.

For `O=c1cc(-c2ccc(OCCOCCN(CCOCCOc3ccc(-c4cc(=O)c5ccccc5o4)cc3)Cc3cc4c(cc3Cl)OCO4)cc2)oc2ccccc12` [Compound 42f, 1,13-Bis[4′-(4H-chromen-4-on-2-yl)phenyl]-7-[5-(6-chloropiperonyl)]-1,4,10,13-tetraoxa-7-azamidecane], the 50% inhibitory concentration (IC50) at 72 h in series [1], in series [2] and in series [3] was above 100 µM throughout. Further, the “RF (Relative Fold), cpd at 0.5 μM” value at Pgp (LCC6MDR cells) is on record as “(4.8)”. In addition, the “RF (Relative Fold), cpd at 1 μM” value at Pgp (LCC6MDR cells) is recorded as “(80.6)”.

Take `COc1cccc(CN(CCOCCOc2ccc(-c3cc(=O)c4ccccc4o3)cc2)CCOCCOc2ccc(-c3cc(=O)c4ccccc4o3)cc2)c1` [Compound 43, 1,13-Bis[4′-(4H-chromen-4-on-2-yl)phenyl]-7-(3-methoxybenzyl)-1,4,10,13-tetraoxa-7-azamidecane]: the IC50 at 72 h in series [1], in series [2] and in series [3] was above 100 µM throughout. Besides, the “RF (Relative Fold), cpd at 0.5 μM” value on Pgp (LCC6MDR cells) is on record as “(22.5)”. Further, on Pgp (LCC6MDR cells), the “RF (Relative Fold), cpd at 1 μM” value was “(95.7)”.

Take `COc1cc(CN(CCOCCOc2ccc(-c3cc(=O)c4ccccc4o3)cc2)CCOCCOc2ccc(-c3cc(=O)c4ccccc4o3)cc2)cc(OC)c1` [Compound 44, 1,13-Bis[4′-(4H-chromen-4-on-2-yl)phenyl]-7-(3,5-dimethoxybenzyl)-1,4,10,13-tetraoxa-7-azamidecane]: the IC50 at 72 h in series [1], in series [2] and in series [3] was above 100 µM in each case. For the same molecule, the “RF (Relative Fold), cpd at 0.5 μM” value on Pgp (LCC6MDR cells) is recorded as “(19.1)”. For the same molecule, at Pgp (LCC6MDR cells), the “RF (Relative Fold), cpd at 1 μM” value is “(51.0)”.

In the case of `Cc1cccc(CN(CCOCCOc2ccc(-c3cc(=O)c4ccccc4o3)cc2)CCOCCOc2ccc(-c3cc(=O)c4ccccc4o3)cc2)c1` [Compound 45, 1,13-Bis[4′-(4H-chromen-4-on-2-yl)phenyl]-7-(3-methylbenzyl)-1,4,10,13-tetraoxa-7-azamidecane], the values for the IC50 at 72 h in series [1], in series [2] and in series [3] were above 66 µM, 57.7 ± 5.9 µM and 55 ± 4.4 µM, respectively. Further, the “RF (Relative Fold), cpd at 0.5 μM” value on Pgp (LCC6MDR cells) is “(32.6)”. Besides, the “RF (Relative Fold), cpd at 1 μM” value at Pgp (LCC6MDR cells) is reported as “(102.1)”.

Consider `Cc1ccccc1CN(CCOCCOc1ccc(-c2cc(=O)c3ccccc3o2)cc1)CCOCCOc1ccc(-c2cc(=O)c3ccccc3o2)cc1` [Compound 46, 1,13-Bis[4′-(4H-chromen-4-on-2-yl)phenyl]-7-(2-methylbenzyl)-1,4,10,13-tetraoxa-7-azamidecane], for which the half-maximal inhibitory concentration (IC50) at 72 h in series [1], in series [2] and in series [3] was above 100 µM throughout. Moreover, the “RF (Relative Fold), cpd at 0.5 μM” value at Pgp (LCC6MDR cells) was “(32.6)”. In addition, the “RF (Relative Fold), cpd at 1 μM” value on Pgp (LCC6MDR cells) is “(117.8)”.

On to `Cc1ccc(CN(CCOCCOc2ccc(-c3cc(=O)c4ccccc4o3)cc2)CCOCCOc2ccc(-c3cc(=O)c4ccccc4o3)cc2)cc1` [Compound 47, 1,13-Bis[4′-(4H-chromen-4-on-2-yl)phenyl]-7-(4-methylbenzyl)-1,4,10,13-tetraoxa-7-azamidecane], for which the values for the IC50 at 72 h in series [1], in series [2] and in series [3] were above 81 µM, above 100 µM and 66.4 ± 16.8 µM, respectively. The “RF (Relative Fold), cpd at 0.5 μM” value at Pgp (LCC6MDR cells) was “(31.2)”. Besides, the “RF (Relative Fold), cpd at 1 μM” value at Pgp (LCC6MDR cells) was “(109.4)”.

For `O=c1cc(-c2ccc(OCCOCCN(CCOCCOc3ccc(-c4cc(=O)c5ccccc5o4)cc3)Cc3cccc(Cl)c3)cc2)oc2ccccc12` [Compound 48, 1,13-Bis[4′-(4H-chromen-4-on-2-yl)phenyl]-7-(3-chlorobenzyl)-1,4,10,13-tetraoxa-7-azamidecane], the half-inhibitory concentration (IC50) at 72 h in series [1] was above 98 µM; in series [2] it was above 100 µM; in series [3], above 100 µM. In addition, the “RF (Relative Fold), cpd at 0.5 μM” value on Pgp (LCC6MDR cells) was “(19.6)”. The “RF (Relative Fold), cpd at 1 μM” value on Pgp (LCC6MDR cells) is “(80.6)”.

For `O=c1cc(-c2ccc(OCCOCCN(CCOCCOc3ccc(-c4cc(=O)c5ccccc5o4)cc3)Cc3ccccc3Cl)cc2)oc2ccccc12` [Compound 50, 1,13-Bis[4′-(4H-chromen-4-on-2-yl)phenyl]-7-(2-chlorobenzyl)-1,4,10,13-tetraoxa-7-azamidecane], the IC50 at 72 h in series [1], in series [2] and in series [3] was above 100 µM each time. In addition, the “RF (Relative Fold), cpd at 0.5 μM” value on Pgp (LCC6MDR cells) is listed as “(11.9)”. Also, at Pgp (LCC6MDR cells), the “RF (Relative Fold), cpd at 1 μM” value is “(95.7)”.

For the molecule `N#Cc1ccc(CN(CCOCCOc2ccc(-c3cc(=O)c4ccccc4o3)cc2)CCOCCOc2ccc(-c3cc(=O)c4ccccc4o3)cc2)cc1` [Compound 51, 1,13-Bis[4′-(4H-chromen-4-on-2-yl)phenyl]-7-(4-cyanobenzyl)-1,4,10,13-tetraoxa-7-azamidecane], the 50% inhibitory concentration (IC50) at 72 h in series [1] is above 100 µM; in series [2], above 100 µM; in series [3] it was 25.2 ± 12.4 µM. Further, the “RF (Relative Fold), cpd at 0.5 μM” value on Pgp (LCC6MDR cells) is “(2.6)”. Further, on Pgp (LCC6MDR cells), the “RF (Relative Fold), cpd at 1 μM” value is recorded as “(5.9)”.

`C=Cc1ccc(CN(CCOCCOc2ccc(-c3cc(=O)c4ccccc4o3)cc2)CCOCCOc2ccc(-c3cc(=O)c4ccccc4o3)cc2)cc1` [Compound 52, 1,13-Bis[4′-(4H-chromen-4-on-2-yl)phenyl]-7-(4-vinylbenzyl)-1,4,10,13-tetraoxa-7-azamidecane]: the IC50 at 72 h in series [1] is 28.3 ± 8.2 µM; in series [2], 21 ± 4.7 µM; in series [3], 7.4 ± 1 µM. Besides, at Pgp (LCC6MDR cells), the “RF (Relative Fold), cpd at 0.5 μM” value was “(72.9)”. Moreover, the “RF (Relative Fold), cpd at 1 μM” value at Pgp (LCC6MDR cells) is listed as “(117.8)”.

`CCc1ccc(CN(CCOCCOc2ccc(-c3cc(=O)c4ccccc4o3)cc2)CCOCCOc2ccc(-c3cc(=O)c4ccccc4o3)cc2)cc1` [Compound 53, 1,13-Bis[4′-(4H-chromen-4-on-2-yl)phenyl]-7-(4-ethylbenzyl)-1,4,10,13-tetraoxa-7-azamidecane]: the IC50 at 72 h in series [1] is above 100 µM; in series [2] it was above 100 µM; in series [3], 25.4 ± 8.1 µM. At Pgp (LCC6MDR cells), the “RF (Relative Fold), cpd at 0.5 μM” value is “(23.9)”. Also, at Pgp (LCC6MDR cells), the “RF (Relative Fold), cpd at 1 μM” value is recorded as “(69.6)”.

In series [1], `CC(C)(C)OC(=O)Nc1ccc(CN(CCOCCOc2ccc(-c3cc(=O)c4ccccc4o3)cc2)CCOCCOc2ccc(-c3cc(=O)c4ccccc4o3)cc2)cc1` [Compound 54, 1,13-Bis[4′-(4H-chromen-4-on-2-yl)phenyl]-7-(4-tert-butyloxycarbonylanimobenzyl)-1,4,10,13-tetraoxa-7-azamidecane] had an IC50 at 72 h above 50 µM. Also, the IC50 at 72 h in series [2] is above 50 µM. In series [3], this molecule displayed an IC50 at 72 h above 50 µM. Besides, on Pgp (LCC6MDR cells), the concentration for a half-maximal effect (EC50) came to 188 nM; the Therapeutic index was 266.0; the “RF (Relative Fold), cpd at 0.5 μM” value is reported as “(45.0)”; the “RF (Relative Fold), cpd at 1 μM” value was “(95.7)”.

The molecule `Nc1ccc(CN(CCOCCOc2ccc(-c3cc(=O)c4ccccc4o3)cc2)CCOCCOc2ccc(-c3cc(=O)c4ccccc4o3)cc2)cc1` [Compound 55, 1,13-Bis[4′-(4H-chromen-4-on-2-yl)phenyl]-7-(4-aminobenzyl)-1,4,10,13-tetraoxa-7-azamidecane] displayed an IC50 at 72 h in series [1] above 50 µM. The same molecule had an IC50 at 72 h in series [2] above 50 µM. Moreover, the IC50 at 72 h in series [3] is above 50 µM. At Pgp (LCC6MDR cells), the half-maximal effective concentration (EC50) came out at 244 nM; the Therapeutic index is on record as 204.9; the “RF (Relative Fold), cpd at 0.5 μM” value is reported as “(8.8)”; the “RF (Relative Fold), cpd at 1 μM” value is recorded as “(72.9)”.

Take `O=c1cc(-c2ccc(OCCOCCN(CCOCCOc3ccc(-c4cc(=O)c5ccccc5o4)cc3)Cc3cccc(-c4ccccc4)c3)cc2)oc2ccccc12` [Compound 56, 1,13-Bis[4′-(4H-chromen-4-on-2-yl)phenyl]-7-(3-phenylbenzyl)-1,4,10,13-tetraoxa-7-azamidecane]: the IC50 at 72 h in series [1], in series [2] and in series [3] was above 100 µM in each case. For the same molecule, on Pgp (LCC6MDR cells), the “RF (Relative Fold), cpd at 0.5 μM” value is reported as “(2.7)”. Further, the “RF (Relative Fold), cpd at 1 μM” value at Pgp (LCC6MDR cells) is recorded as “(38.5)”.

Regarding `O=c1cc(-c2ccc(OCCOCCN(CCOCCOc3ccc(-c4cc(=O)c5ccccc5o4)cc3)Cc3ccc4ccccc4c3)cc2)oc2ccccc12` [Compound 58, 1,13-Bis[4′-(4H-chromen-4-on-2-yl)phenyl]-7-(2-naphthalenylmethyl)-1,4,10,13-tetraoxa-7-azamidecane], 8.9 ± 3.3 µM corresponded to half-maximal inhibition in series [1] (IC50 at 72 h). Besides, the concentration for half-maximal inhibition (IC50) at 72 h in series [2] turned out to be 4.8 ± 0.4 µM. In addition, inhibition in series [3] was half-maximal at 5.1 ± 0.3 µM (IC50 at 72 h). On Pgp (LCC6MDR cells), the EC50 stood at 92 ± 11 nM; the Therapeutic index is listed as 55.4; the “RF (Relative Fold), cpd at 0.5 μM” value is recorded as “(95.7)”; the “RF (Relative Fold), cpd at 1 μM” value was “(117.8)”.

(Values after US8980848B2, “Flavonoid dimers and their use” (The Hong Kong Polytechnic University, priority 2010, dated 2015).)
